Measurements taken from patent US6355799B1, “Substituted benzene compounds, process for their preparation, and herbicidal and defoliant compositions containing them” (ISK Americas Incorporated, priority 1997, dated 2002).

How the values were obtained:
Assay type in all cases: in vivo
[1] = tested on: upland rice (Oryza sp., var. Tebonnet, RICE); experiment: Post-emerge test, crop safety; settings: rating scale 0-100 (0 no damage, 100 complete death), 14 days after application
Outline: (§1)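 Plants grown in 10 cm pots of sandy loam mix received acetone-dissolved compounds through a moving flat-fan nozzle. Doses ranged from 15 to 1000 g ai/ha. Pre-emerge pots were seeded one day earlier, post-emerge pots 8–21 days earlier. Fourteen days on, each pot was graded 0–100 for damage.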

[2] = tested on: field corn (Zea mays L., var. Dekalb 535, CORN); experiment: Post-emerge test, crop safety; settings: rating scale 0-100 (0 no damage, 100 complete death), 14 days after application
Outline: as §1

[3] = tested on: redroot pigweed (Amaranthus retroflexus, AMARE); experiment: Pre-emerge test, greenhouse herbicide activity screening; settings: rating scale 0-100, 14 days after application
Outline: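 Compounds in acetone were track-sprayed at 187 l/ha, 15–1000 g ai/ha, onto sandy loam pots. Pre-emerge seeds were sown one day before spraying, with surface watering afterwards. Post-emerge plants were at the 2–3 leaf stage and sprayed with 0.25% v/v non-ionic surfactant. Injury was rated 0–100 at 14 days.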

[4] = tested on: lambsquarters (Chenopodium album, CHEAL); experiment: as above; settings: rating scale 0-100, 14 days after application
Outline: (§2)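 Rating: 0–100 visual injury, 14 DAA. Application: acetone, 187 l/ha, 15–1000 g ai/ha, flat-fan track sprayer with nozzle 40–45 cm above soil or canopy. Post-emerge runs used 0.25% v/v surfactant on 2–3 leaf plants.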

[5] = tested on: johnsongrass (Sorghum halepense, SORHA); experiment: as above; settings: rating scale 0-100, 14 days after application
Outline: as §2

[6] = tested on: barnyardgrass (Echinochloa crus-galli, ECHCG); experiment: as above; settings: rating scale 0-100, 14 days after application
Outline: as §2

[7] = tested on: large crabgrass (Digitaria sanguinalis, DIGSA); experiment: as above; settings: rating scale 0-100, 14 days after application
Outline: as §2

[8] = tested on: sicklepod (Cassia obtusifolia, CASOB); experiment: as above; settings: rating scale 0-100, 14 days after application
Outline: as §2

[9] = tested on: ivyleaf morningglory (Ipomoea hederacea, IPOHE); experiment: as above; settings: rating scale 0-100, 14 days after application
Outline: as §2

[10] = tested on: velvetleaf (Abutilon theophrasti, ABUTH); experiment: as above; settings: rating scale 0-100, 14 days after application
Outline: as §2

[11] = tested on: green foxtail (Setaria viridis, SETVI); experiment: as above; settings: rating scale 0-100, 14 days after application
Outline: as §2

[12] = tested on: redroot pigweed (Amaranthus retroflexus, AMARE); experiment: Post-emerge test, greenhouse herbicide activity screening; settings: rating scale 0-100 (0 no damage, 100 complete death), 14 days after application
Outline: (§3)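 Applied at 15–1000 g ai/ha from acetone in 187 l/ha spray volume. Post-emergence applications included 0.25% v/v non-ionic surfactant and reached plants sown 8–21 days before. Pre-emergence applications were incorporated by surface watering. Efficacy or crop damage was rated on a 0–100 scale after 14 days.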

[13] = tested on: lambsquarters (Chenopodium album, CHEAL); experiment: as above; settings: rating scale 0-100 (0 no damage, 100 complete death), 14 days after application
Outline: as §3

[14] = tested on: common ragweed (Ambrosia artemisizfolia L., AMBEL); experiment: as above; settings: rating scale 0-100 (0 no damage, 100 complete death), 14 days after application
Outline: as §3

[15] = tested on: johnsongrass (Sorghum halepense, SORHA); experiment: as above; settings: rating scale 0-100 (0 no damage, 100 complete death), 14 days after application
Outline: as §3

[16] = tested on: barnyardgrass (Echinochloa crus-galli, ECHCG); experiment: as above; settings: rating scale 0-100 (0 no damage, 100 complete death), 14 days after application
Outline: as §3

[17] = tested on: large crabgrass (Digitaria sanguinalis, DIGSA); experiment: as above; settings: rating scale 0-100 (0 no damage, 100 complete death), 14 days after application
Outline: as §3

[18] = tested on: sicklepod (Cassia obtusifolia, CASOB); experiment: as above; settings: rating scale 0-100 (0 no damage, 100 complete death), 14 days after application
Outline: as §3

[19] = tested on: ivyleaf morningglory (Ipomoea hederacea, IPOHE); experiment: as above; settings: rating scale 0-100 (0 no damage, 100 complete death), 14 days after application
Outline: as §3

[20] = tested on: velvetleaf (Abutilon theophrasti, ABUTH); experiment: as above; settings: rating scale 0-100 (0 no damage, 100 complete death), 14 days after application
Outline: as §3

[21] = tested on: green foxtail (Setaria viridis, SETVI); experiment: as above; settings: rating scale 0-100 (0 no damage, 100 complete death), 14 days after application
Outline: as §3

[22] = tested on: upland rice (Oryza sp., var. Tebonnet, RICE); experiment: Pre-emerge test, crop safety; settings: rating scale 0-100, 14 days after application
Outline: (§4)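 Fourteen days after spraying, crop and weed injury was graded visually from 0, no effect, to 100, every plant dead. Test substances were dissolved in acetone and applied at 15–1000 g ai/ha with a flat-fan nozzle. Application was either pre-emergence, one day after sowing, or post-emergence at the 2–3 leaf stage.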

[23] = tested on: field corn (Zea mays L., var. Dekalb 535, CORN); experiment: Pre-emerge test, crop safety; settings: rating scale 0-100, 14 days after application
Outline: as §4

CCCCCOC(=O)C(C)(Cl)Cc1c(OC)c(Cl)cc(F)c1-n1c(=O)cc(C(F)(F)F)n(C)c1=O (centres unmarked) [14-37]
Post-emerge phytotoxicity rating RICE (crop damage) ([1]; Rate 63 g ai/ha): 70
Post-emerge phytotoxicity rating RICE (crop damage) ([1]; Rate 250 g ai/ha): 100
Post-emerge phytotoxicity rating CORN (crop damage) ([2]; Rate 63 g ai/ha): 20
Post-emerge phytotoxicity rating CORN (crop damage) ([2]; Rate 250 g ai/ha): 95
Pre-emerge herbicidal activity, phytotoxicity rating AMARE ([3]; 63 g ai/ha): 100
Pre-emerge herbicidal activity, phytotoxicity rating AMARE ([3]; 250 g ai/ha): 100
Pre-emerge herbicidal activity, phytotoxicity rating CHEAL ([4]; 63 g ai/ha): 100
Pre-emerge herbicidal activity, phytotoxicity rating CHEAL ([4]; 250 g ai/ha): 100
Pre-emerge herbicidal activity, phytotoxicity rating SORHA ([5]; 63 g ai/ha): 0
Pre-emerge herbicidal activity, phytotoxicity rating SORHA ([5]; 250 g ai/ha): 0
Pre-emerge herbicidal activity, phytotoxicity rating ECHCG ([6]; 63 g ai/ha): 0
Pre-emerge herbicidal activity, phytotoxicity rating ECHCG ([6]; 250 g ai/ha): 99
Pre-emerge herbicidal activity, phytotoxicity rating DIGSA ([7]; 63 g ai/ha): 0
Pre-emerge herbicidal activity, phytotoxicity rating DIGSA ([7]; 250 g ai/ha): 100
Pre-emerge herbicidal activity, phytotoxicity rating CASOB ([8]; 63 g ai/ha): 0
Pre-emerge herbicidal activity, phytotoxicity rating CASOB ([8]; 250 g ai/ha): 0
Pre-emerge herbicidal activity, phytotoxicity rating IPOHE ([9]; 63 g ai/ha): 0
Pre-emerge herbicidal activity, phytotoxicity rating IPOHE ([9]; 250 g ai/ha): 0
Pre-emerge herbicidal activity, phytotoxicity rating ABUTH ([10]; 63 g ai/ha): 90
Pre-emerge herbicidal activity, phytotoxicity rating ABUTH ([10]; 250 g ai/ha): 100
Pre-emerge herbicidal activity, phytotoxicity rating SETVI ([11]; 63 g ai/ha): 0
Pre-emerge herbicidal activity, phytotoxicity rating SETVI ([11]; 250 g ai/ha): 95
Post-emerge Herbicidal Activity, phytotoxicity rating AMARE ([12]; Rate 63 g ai/ha): 100
Post-emerge Herbicidal Activity, phytotoxicity rating AMARE ([12]; Rate 250 g ai/ha): 100
Post-emerge Herbicidal Activity, phytotoxicity rating CHEAL ([13]; Rate 63 g ai/ha): 100
Post-emerge Herbicidal Activity, phytotoxicity rating CHEAL ([13]; Rate 250 g ai/ha): 100
Post-emerge Herbicidal Activity, phytotoxicity rating AMBEL ([14]; Rate 63 g ai/ha): 100
Post-emerge Herbicidal Activity, phytotoxicity rating AMBEL ([14]; Rate 250 g ai/ha): 100
Post-emerge Herbicidal Activity, phytotoxicity rating SORHA ([15]; Rate 63 g ai/ha): 0
Post-emerge Herbicidal Activity, phytotoxicity rating SORHA ([15]; Rate 250 g ai/ha): 30
Post-emerge Herbicidal Activity, phytotoxicity rating ECHCG ([16]; Rate 63 g ai/ha): 100
Post-emerge Herbicidal Activity, phytotoxicity rating ECHCG ([16]; Rate 250 g ai/ha): 100
Post-emerge Herbicidal Activity, phytotoxicity rating DIGSA ([17]; Rate 63 g ai/ha): 80
Post-emerge Herbicidal Activity, phytotoxicity rating DIGSA ([17]; Rate 250 g ai/ha): 100
Post-emerge Herbicidal Activity, phytotoxicity rating CASOB ([18]; Rate 63 g ai/ha): 20
Post-emerge Herbicidal Activity, phytotoxicity rating CASOB ([18]; Rate 250 g ai/ha): 50
Post-emerge Herbicidal Activity, phytotoxicity rating IPOHE ([19]; Rate 63 g ai/ha): 30
Post-emerge Herbicidal Activity, phytotoxicity rating IPOHE ([19]; Rate 250 g ai/ha): 100
Post-emerge Herbicidal Activity, phytotoxicity rating ABUTH ([20]; Rate 63 g ai/ha): 100
Post-emerge Herbicidal Activity, phytotoxicity rating ABUTH ([20]; Rate 250 g ai/ha): 100
Post-emerge Herbicidal Activity, phytotoxicity rating SETVI ([21]; Rate 63 g ai/ha): 90
Post-emerge Herbicidal Activity, phytotoxicity rating SETVI ([21]; Rate 250 g ai/ha): 100
Pre-emerge phytotoxicity rating, crop damage RICE ([22]; 63 g ai/ha): 0
Pre-emerge phytotoxicity rating, crop damage RICE ([22]; 250 g ai/ha): 80
Pre-emerge phytotoxicity rating, crop damage CORN ([23]; 63 g ai/ha): 0
Pre-emerge phytotoxicity rating, crop damage CORN ([23]; 250 g ai/ha): 0

COc1c(Cl)cc(F)c(-n2c(=O)cc(C(F)(F)F)n(C)c2=O)c1CC(C)(Cl)C(=O)OC(C)C (centres unmarked) [14-39]
Post-emerge phytotoxicity rating RICE (crop damage) ([1]; Rate 63 g ai/ha): 90
Post-emerge phytotoxicity rating RICE (crop damage) ([1]; Rate 250 g ai/ha): 100
Post-emerge phytotoxicity rating CORN (crop damage) ([2]; Rate 63 g ai/ha): 30
Post-emerge phytotoxicity rating CORN (crop damage) ([2]; Rate 250 g ai/ha): 50
Pre-emerge herbicidal activity, phytotoxicity rating AMARE ([3]; 63 g ai/ha): 100
Pre-emerge herbicidal activity, phytotoxicity rating AMARE ([3]; 250 g ai/ha): 100
Pre-emerge herbicidal activity, phytotoxicity rating CHEAL ([4]; 63 g ai/ha): 100
Pre-emerge herbicidal activity, phytotoxicity rating CHEAL ([4]; 250 g ai/ha): 100
Pre-emerge herbicidal activity, phytotoxicity rating SORHA ([5]; 63 g ai/ha): 0
Pre-emerge herbicidal activity, phytotoxicity rating SORHA ([5]; 250 g ai/ha): 60
Pre-emerge herbicidal activity, phytotoxicity rating ECHCG ([6]; 63 g ai/ha): 10
Pre-emerge herbicidal activity, phytotoxicity rating ECHCG ([6]; 250 g ai/ha): 95
Pre-emerge herbicidal activity, phytotoxicity rating DIGSA ([7]; 63 g ai/ha): 95
Pre-emerge herbicidal activity, phytotoxicity rating DIGSA ([7]; 250 g ai/ha): 100
Pre-emerge herbicidal activity, phytotoxicity rating CASOB ([8]; 63 g ai/ha): 0
Pre-emerge herbicidal activity, phytotoxicity rating CASOB ([8]; 250 g ai/ha): 20
Pre-emerge herbicidal activity, phytotoxicity rating IPOHE ([9]; 63 g ai/ha): 0
Pre-emerge herbicidal activity, phytotoxicity rating IPOHE ([9]; 250 g ai/ha): 0
Pre-emerge herbicidal activity, phytotoxicity rating ABUTH ([10]; 63 g ai/ha): 100
Pre-emerge herbicidal activity, phytotoxicity rating ABUTH ([10]; 250 g ai/ha): 100
Pre-emerge herbicidal activity, phytotoxicity rating SETVI ([11]; 63 g ai/ha): 70
Pre-emerge herbicidal activity, phytotoxicity rating SETVI ([11]; 250 g ai/ha): 100
Post-emerge Herbicidal Activity, phytotoxicity rating AMARE ([12]; Rate 63 g ai/ha): 100
Post-emerge Herbicidal Activity, phytotoxicity rating AMARE ([12]; Rate 250 g ai/ha): 100
Post-emerge Herbicidal Activity, phytotoxicity rating CHEAL ([13]; Rate 63 g ai/ha): 100
Post-emerge Herbicidal Activity, phytotoxicity rating CHEAL ([13]; Rate 250 g ai/ha): 100
Post-emerge Herbicidal Activity, phytotoxicity rating AMBEL ([14]; Rate 63 g ai/ha): 50
Post-emerge Herbicidal Activity, phytotoxicity rating AMBEL ([14]; Rate 250 g ai/ha): 50
Post-emerge Herbicidal Activity, phytotoxicity rating SORHA ([15]; Rate 63 g ai/ha): 30
Post-emerge Herbicidal Activity, phytotoxicity rating SORHA ([15]; Rate 250 g ai/ha): 40
Post-emerge Herbicidal Activity, phytotoxicity rating ECHCG ([16]; Rate 63 g ai/ha): 100
Post-emerge Herbicidal Activity, phytotoxicity rating ECHCG ([16]; Rate 250 g ai/ha): 100
Post-emerge Herbicidal Activity, phytotoxicity rating DIGSA ([17]; Rate 63 g ai/ha): 60
Post-emerge Herbicidal Activity, phytotoxicity rating DIGSA ([17]; Rate 250 g ai/ha): 100
Post-emerge Herbicidal Activity, phytotoxicity rating CASOB ([18]; Rate 63 g ai/ha): 60
Post-emerge Herbicidal Activity, phytotoxicity rating CASOB ([18]; Rate 250 g ai/ha): 100
Post-emerge Herbicidal Activity, phytotoxicity rating IPOHE ([19]; Rate 63 g ai/ha): 20
Post-emerge Herbicidal Activity, phytotoxicity rating IPOHE ([19]; Rate 250 g ai/ha): 50
Post-emerge Herbicidal Activity, phytotoxicity rating ABUTH ([20]; Rate 63 g ai/ha): 99
Post-emerge Herbicidal Activity, phytotoxicity rating ABUTH ([20]; Rate 250 g ai/ha): 100
Post-emerge Herbicidal Activity, phytotoxicity rating SETVI ([21]; Rate 63 g ai/ha): 95
Post-emerge Herbicidal Activity, phytotoxicity rating SETVI ([21]; Rate 250 g ai/ha): 100
Pre-emerge phytotoxicity rating, crop damage RICE ([22]; 63 g ai/ha): 0
Pre-emerge phytotoxicity rating, crop damage RICE ([22]; 250 g ai/ha): 80
Pre-emerge phytotoxicity rating, crop damage CORN ([23]; 63 g ai/ha): 0
Pre-emerge phytotoxicity rating, crop damage CORN ([23]; 250 g ai/ha): 0
